Patent US11813280B2, “Reducing beta-catenin and IDO expression to potentiate immunotherapy” (Dicerna Pharmaceuticals, Inc., priority 2018, dated 2023)
“Also recorded” adds a separate entry of the source.

How the values were obtained:
4T1 tumors [1] = assay: Immunohistochemistry of 4T1 tumors for β-catenin, CD8 and IDO1; type: in vivo, Balb/C mice; settings: IDOi orally twice daily 100 mg/kg per dose days 6 and 8, tumors 48 hours after last dose, vs vehicle
B16F10 tumors [2] = assay: Immunohistochemistry of B16F10 tumors for β-catenin, CD8 and IDO1; type: in vivo, C57BL/6 mice; settings: IDOi orally twice daily 100 mg/kg per dose days 7 and 9, tumors 48 hours after last dose, vs vehicle
4T1 tumors [3] = assay: 4T1 tumor growth study; type: in vivo, Balb/C mice
Method: (§1) 6-8-week-old immunocompetent mice (C57BL/6 or Balb/C) were injected subcutaneously with 1.5×10^6B16F10 or 1.5×10^6 4T1 tumor cells under the right shoulder. Tumor volume was measured every 2-3 days a week to monitor tumor growth. Dosing was initiated when the tumors reached about 150-200 mm^3. […] BCAT1 formulated LNP or Placebo (scrambled CTNNB1 dsRNAi) formulated LNP was given intravenously via lateral tail vein at a total volume of 10 ml/kg. Immunotherapy treatments (anti-PD-1 antibody) were given intraperitoneally at a volume of 10 ml/kg.
(§2) Mouse cell lines B16F10 and 4T1 cells were obtained from ATCC (Manassas, Va.) and grown in RPMI/DMEM medium supplemented with 10% FBS. B16F10 cells is a murine melanoma cell line with no Wnt activation or IDO1 activation. 4T1 is a murine breast cell line with Wnt activation and constitutive activation of IDO1.
In another study, 4T1 tumor cells were implanted in Balb/C mice and 4 days post-implant, the mice were randomized into two groups and treated with placebo or BCAT1. This dosing cycle was then repeated on days 9 and 10. Tumor growth was monitored by measuring the tumor sizes over the course of the treatment period. […] FIG. 1C.
Tumors were collected 48 hours after the last dose and were subjected to immunohistochemistry to look at β-catenin, CD8 and IDO1 levels. […] FIG. 3B. FIG. 3B. […] Tumor growth was monitored by measuring the tumor sizes over the course of the treatment period. […] FIG. 3C.

B16F10 tumors [4] = assay: B16F10 tumor growth study; type: in vivo, C57BL/6 mice; settings: IDOi twice daily 100 mg/kg per dose days 7 and 9; 100 mg/kg
Method: as §1, §2
In a similar study, B16F10 tumor cells were implanted in C57BL/6 mice and at day 5 post-implant, the mice were randomized into two groups and treated with placebo or BCAT1. This dosing cycle was then repeated on days 11 and 12. Tumor growth was monitored by measuring the tumor sizes over the course of the treatment period. […] FIG. 6C.
Tumor growth was monitored by measuring the tumor sizes over the course of the treatment period. […] FIG. 8C. […]

melanoma = settings: epacadostat in combination with the PD-1 inhibitors pembrolizumab and nivolumab; Phase I/II; cited from earlier work
MMTV-Wnt tumors = assay: Immunohistochemistry of MMTV-Wnt tumors for β-catenin, CD8 and IDO1; type: in vivo, mice; settings: IDOi 30 mg/kg per dose twice a day for 3 consecutive days; tumors 24 hours after last dose
Method: In the MMTV-Wnt mouse model, mammary gland specific overexpression of Wnt1 with MMTV-LTR leads to spontaneous breast tumors with activated Wnt/β-catenin signaling. MMTV-Wnt mammary tumors spontaneously grow in mice in 3-6 months from the time of birth with Wnt pathway activation.
To see the effect of β-catenin inhibition on T cell infiltration and IDO1 levels in spontaneous tumors, the MMTV-Wnt1 model was used. The tumors were collected 24 hours after the last dose and subjected to immunohistochemistry to determine β-catenin, CD8, and IDO1 levels.
Tumors were collected 24 hours after the last dose and subjected to immunohistochemistry to determine β-catenin, CD8 and IDO1 levels.

[5] = system: metastatic or recurrent squamous cell carcinoma of the head and neck, advanced urothelial cell carcinoma, and advanced renal cell carcinoma; settings: epacadostat combination; cited from earlier work

NS(=O)(=O)NCCNc1nonc1C(=NO)Nc1ccc(F)c(Br)c1 [IDOi, epacadostat]
CD8 levels / CD8 T-cell infiltration (immunohistochemistry) (4T1 tumors [1]): only modestly altered; also recorded: increases
IDO1 levels (immunohistochemistry) (4T1 tumors [1]): reduced the IDO1 levels almost completely; also recorded: decreases
β-catenin levels (immunohistochemistry) (4T1 tumors [1]): only modestly altered; also recorded: decreases
CD8 levels / CD8 T-cell infiltration (immunohistochemistry) (B16F10 tumors [2]): increases
IDO1 levels (immunohistochemistry) (B16F10 tumors [2]): reduced the IDO1 levels almost completely; also recorded: decreases
β-catenin levels (immunohistochemistry) (B16F10 tumors [2]): decreases
tumor growth as compared to placebo (4T1 tumors [3]; IDOi alone twice daily at 100 mg/kg per day on days 6 and 8 post-implant, 100 mg/kg/day): tumor growth inhibition; also recorded: inhibits tumor growth
anti-tumor efficacy (tumor volume) (4T1 tumors [3]; IDOi orally 100 mg/kg per dose twice daily days 4 and 6, BCAT1 iv 3 mg/kg days 5 and 6, anti-PD-1 antibody ip 5 mg/kg days 7 and 8, single, double or triple agents): modest anti-tumor efficacy
tumor growth inhibition vs vehicle (B16F10 tumors [4]): did not result in any significant tumor growth inhibition; also recorded: does not significantly inhibit tumor growth
clinical results in patients with melanoma (melanoma): positive early results
CD8 levels (immunohistochemistry) (MMTV-Wnt tumors): increases
IDO1 levels (immunohistochemistry) (MMTV-Wnt tumors): reduced the IDO1 levels almost completely; also recorded: reduces
β-catenin levels (immunohistochemistry) (MMTV-Wnt tumors): increases
efficacy in other tumors [5]: shown efficacy
